Measured values reported in paper PMC8523698, “Preclinical characterization of an intravenous coronavirus 3CL protease inhibitor for the potential treatment of COVID19” (Nature Communications, 2021).
Values joined by “and” are separate entries in the source; they are usually repeats but may differ in a detail not shown here. Identical values can stand only once. Like-named read-outs stand apart in the source and are kept apart here.

Assays:
[1] = Plasma protein binding by equilibrium dialysis; settings: for fraction unbound at 6 h, 5 uM / fraction unbound at 6 h / fraction unbound at 6 h, 3.44 uM: human, plasma
[2] = Plasma protein binding by equilibrium dialysis; settings: for fraction unbound at 6 h, 5 uM / fraction unbound at 6 h / fraction unbound at 6 h, 3.44 uM: dog, plasma
OAT1 = molecular target: T1, OAT1 (Homo sapiens, UniProt Q4U2R8); experiment: Transporter inhibition using transfected HEK293 cells
T1 sequence (Q4U2R8 1-563): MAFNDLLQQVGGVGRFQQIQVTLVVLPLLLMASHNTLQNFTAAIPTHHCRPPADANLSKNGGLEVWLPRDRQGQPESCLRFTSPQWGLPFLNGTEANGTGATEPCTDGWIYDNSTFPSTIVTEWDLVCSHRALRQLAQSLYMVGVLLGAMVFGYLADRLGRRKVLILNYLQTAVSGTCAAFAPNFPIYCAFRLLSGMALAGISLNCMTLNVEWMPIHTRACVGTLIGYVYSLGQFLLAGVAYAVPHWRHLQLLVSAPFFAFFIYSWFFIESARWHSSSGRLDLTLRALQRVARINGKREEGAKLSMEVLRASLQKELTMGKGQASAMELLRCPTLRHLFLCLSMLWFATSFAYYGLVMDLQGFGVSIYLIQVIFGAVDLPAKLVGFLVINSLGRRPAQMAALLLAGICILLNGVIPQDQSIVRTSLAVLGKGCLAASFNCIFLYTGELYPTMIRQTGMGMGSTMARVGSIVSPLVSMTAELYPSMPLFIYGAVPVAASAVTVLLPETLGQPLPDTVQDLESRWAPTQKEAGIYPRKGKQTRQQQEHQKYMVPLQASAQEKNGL

OCT2 = molecular target: T2, OCT2 (Homo sapiens, UniProt O15244); experiment: as above
T2 sequence (O15244 1-555): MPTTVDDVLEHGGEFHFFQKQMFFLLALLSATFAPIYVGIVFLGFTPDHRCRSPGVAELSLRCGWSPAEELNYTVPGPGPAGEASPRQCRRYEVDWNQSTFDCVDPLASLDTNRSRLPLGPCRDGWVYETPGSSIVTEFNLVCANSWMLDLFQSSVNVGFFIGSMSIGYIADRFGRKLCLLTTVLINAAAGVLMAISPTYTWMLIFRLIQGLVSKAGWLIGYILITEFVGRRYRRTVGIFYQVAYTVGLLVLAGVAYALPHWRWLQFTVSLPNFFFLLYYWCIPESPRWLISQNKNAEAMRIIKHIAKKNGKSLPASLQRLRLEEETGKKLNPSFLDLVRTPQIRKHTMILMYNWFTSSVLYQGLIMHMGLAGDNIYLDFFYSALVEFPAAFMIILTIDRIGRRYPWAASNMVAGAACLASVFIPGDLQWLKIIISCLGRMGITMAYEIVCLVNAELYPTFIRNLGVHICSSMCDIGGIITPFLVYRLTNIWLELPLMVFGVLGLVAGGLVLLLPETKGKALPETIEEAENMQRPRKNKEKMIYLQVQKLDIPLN

MATE1 = molecular target: T3, MATE1 (Homo sapiens, UniProt Q96FL8); experiment: as above
T3 sequence (Q96FL8 1-570): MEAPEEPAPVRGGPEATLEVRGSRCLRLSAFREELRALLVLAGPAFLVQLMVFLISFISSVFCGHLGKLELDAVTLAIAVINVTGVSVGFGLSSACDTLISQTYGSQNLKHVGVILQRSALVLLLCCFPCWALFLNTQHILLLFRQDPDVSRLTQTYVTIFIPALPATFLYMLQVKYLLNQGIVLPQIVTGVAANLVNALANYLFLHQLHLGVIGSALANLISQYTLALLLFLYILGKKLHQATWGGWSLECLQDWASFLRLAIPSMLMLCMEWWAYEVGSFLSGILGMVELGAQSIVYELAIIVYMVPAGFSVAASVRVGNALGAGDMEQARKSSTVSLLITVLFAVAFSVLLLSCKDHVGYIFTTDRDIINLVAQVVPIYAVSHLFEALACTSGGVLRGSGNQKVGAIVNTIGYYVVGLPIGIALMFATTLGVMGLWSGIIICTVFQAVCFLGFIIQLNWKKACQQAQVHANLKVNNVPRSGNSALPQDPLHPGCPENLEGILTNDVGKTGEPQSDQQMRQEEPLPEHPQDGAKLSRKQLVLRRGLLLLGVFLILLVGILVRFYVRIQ

[3] = Human blood hemocompatibility (hemolysis, flocculation)
CYP3A4/5 = experiment: Time-dependent inhibition of CYP enzymes in human liver microsomes; settings: for time-dependent inhibition (TDI) signal: pooled HLM
[4] = pH 7.4, Measured plasma fu / Human plasma fu, human plasma
[5] = pH 7.4, Unbound fraction fu (%CV), human plasma

COc1cccc2[nH]c(C(=O)N[C@@H](CC(C)C)C(=O)N[C@@H](C[C@@H]3CCNC3=O)C(=O)CO)cc12 [PF-00835231]
Individual fraction unbound ([1]; human plasma, 5.0 uM, replicates Day 1-3): 0.474 and 0.429 and 0.385 and 0.458 and 0.463 and 0.507 and 0.437 and 0.428 and 0.477 and 0.486
fraction unbound at 6 h, 5 uM ([1]; pH 7.4, Fraction unbound, Geomean, human plasma, 5.0 uM, n 12): 0.449
fraction unbound at 6 h, 5 uM ([1]; pH 7.4, Individual fraction unbound, human plasma, 5.0 uM, replicates Day 1-3): 0.423
fraction unbound at 6 h [1, 4]: 0.449
fraction unbound at 6 h [1, 5]: 0.449
fraction unbound at 6 h, 5 uM ([1]; pH 7.4, fraction unbound Geomean, human plasma, 5.0 uM, n=12): 0.449
fraction unbound at 6 h ([1]; pH 7.4, fu, fu,plasma, Simcyp input parameter (User), substrate): 0.449
fraction unbound at 6 h, 5 uM ([2]; Beagle, pH 7.4, Fraction unbound, Geomean, Dog plasma, 5.0 uM, n 12): 0.416
fraction unbound at 6 h, 5 uM ([2]; Beagle, pH 7.4, Individual fraction unbound, Dog Beagle plasma, 5.0 uM, replicates Day 1-3): 0.401
Individual fraction unbound ([2]; Dog Beagle plasma, 5.0 uM, replicates Day 1-3): 0.386 and 0.435 and 0.45 and 0.406 and 0.488 and 0.451 and 0.403 and 0.342 and 0.444 and 0.382 and 0.419
fraction unbound at 6 h ([2]; pH 7.4, Plasma fu, Vdss input): 0.416
fraction unbound at 6 h ([2]; pH 7.4, Unbound fraction fu (%CV), dog plasma): 0.416
fraction unbound at 6 h, 5 uM ([2]; pH 7.4, fraction unbound Geomean, dog plasma, 5.0 uM, n=12): 0.416
IC50 (OAT1): > 300 µM
IC50 (OAT1; human, HEK293 cells transfected with OAT1, pH 7.4, probe [3H] para-aminohippuric acid (0.5 µM)): > 20 µM
IC50 (OCT2): > 300 µM
IC50 (OCT2; human, HEK293 cells stably transfected with OCT2, pH 7.4, probe [14C]-metformin (20 µM)): > 20 µM
IC50 (MATE1; IC50, [14C]Metformin (20 µM)): 175 µM
IC50 (MATE1; human, pH 7.4, IC50, [14C]Metformin (20 µM)): > 20 µM
hemolysis or flocculation/turbidity parameters [3]: no effect on hemolysis or flocculation/turbidity parameters
KI ± SE (CYP3A4/5; Midazolam (20 µM)): 163 ± 31 µM
KI ± SE (CYP3A4/5; Midazolam (20 µM), listed as PF00835231): 163 µM
KI ± SE (CYP3A4/5; Testosterone ([…])): 168 ± 8 µM
time-dependent inhibition (TDI) signal (CYP3A4/5): weak signal

COc1cccc2[nH]c(C(=O)N[C@@H](CC(C)C)C(=O)N[C@@H](C[C@@H]3CCNC3=O)C(=O)COP(=O)(O)O)cc12 [PF-07304814]
Individual fraction unbound ([1]; human plasma, 3.44 uM, replicates Day 1-3): 0.199 and 0.194 and 0.181 and 0.192 and 0.178 and 0.182 and 0.198 and 0.168 and 0.191 and 0.180 and 0.167
fraction unbound at 6 h, 3.44 uM ([1]; pH 7.4, Fraction unbound, Geomean, human plasma, 3.44 uM, n 12): 0.184
fraction unbound at 6 h, 3.44 uM ([1]; pH 7.4, Individual fraction unbound, human plasma, 3.44 uM, replicates Day 1-3): 0.186
fraction unbound at 6 h [1, 4]: 0.184
fraction unbound at 6 h [1, 5]: 0.184
fraction unbound at 6 h, 3.44 uM ([1]; pH 7.4, fraction unbound Geomean, human plasma, 3.44 uM, n=12): 0.184
fraction unbound at 6 h, 3.44 uM ([2]; both, Beagle, pH 7.4, Individual fraction unbound, dog plasma, Beagle, male and female, 3.44 uM, Day 1): 0.322
fraction unbound at 6 h, 3.44 uM ([2]; both, Beagle, pH 7.4, Individual fraction unbound, dog plasma, Beagle, male and female, 3.44 uM, Day 2): 0.344
fraction unbound at 6 h, 3.44 uM ([2]; both, Beagle, pH 7.4, Individual fraction unbound, dog plasma, Beagle, male and female, 3.44 uM, Day 3): 0.303
Individual fraction unbound ([2]; dog plasma, Beagle, male and female, 3.44 uM, Day 1): 0.288 and 0.267 and 0.276
Individual fraction unbound ([2]; dog plasma, Beagle, male and female, 3.44 uM, Day 2): 0.33 and 0.389 and 0.349
Individual fraction unbound ([2]; dog plasma, Beagle, male and female, 3.44 uM, Day 3): 0.301 and 0.285 and 0.313
fraction unbound at 6 h, 3.44 uM ([2]; pH 7.4, fraction unbound Geomean, dog plasma, 3.44 uM, n=12): 0.312
IC50 (OAT1; IC50, [3H]PAH (0.5 µM)): > 300 µM
IC50 (OCT2; IC50, [14C]Metformin (20 µM)): > 300 µM
IC50 (MATE1; IC50, [14C]Metformin (20 µM)): > 300 µM
hemolysis or flocculation/turbidity parameters [3]: no effect on hemolysis or flocculation/turbidity parameters
time-dependent inhibition (TDI) signal (CYP3A4/5): no evidence of TDI
